Experimental data published in patent US9738655B2, “Tetrahydroisoquinolines containing substituted azoles as factor XIa inhibitors” (BRISTOL-MYERS SQUIBB COMPANY, priority 2013, dated 2017).
Where a name gives a salt, the structure may show the parent alone. Read-outs that look alike come from different tables or passages of the source.

Legend:
[1] = biological target: purified human plasma kallikrein (Homo sapiens (Human), UniProt P03952); assay: Plasma kallikrein enzyme inhibition assay (chromogenic substrate S-2302); type: biochemical
[2] = biological target: purified human Factor XIa (Homo sapiens (Human), UniProt P03951); assay: Factor XIa enzyme inhibition assay (chromogenic substrate S-2366)
[3] = measured at 25° C. (no asterisk)
[4] = read-out: Factor XIa Ki, measured at 25° C.

Chain of purified human Factor XIa (P03951 388-625): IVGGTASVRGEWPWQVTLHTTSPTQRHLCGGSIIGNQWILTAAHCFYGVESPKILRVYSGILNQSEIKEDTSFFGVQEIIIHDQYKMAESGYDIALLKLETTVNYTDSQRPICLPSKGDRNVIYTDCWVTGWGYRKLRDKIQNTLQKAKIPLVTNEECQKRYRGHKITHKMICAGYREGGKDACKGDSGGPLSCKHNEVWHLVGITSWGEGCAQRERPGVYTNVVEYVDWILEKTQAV
Chain of purified human Factor XIa (P03951 19-387 partner): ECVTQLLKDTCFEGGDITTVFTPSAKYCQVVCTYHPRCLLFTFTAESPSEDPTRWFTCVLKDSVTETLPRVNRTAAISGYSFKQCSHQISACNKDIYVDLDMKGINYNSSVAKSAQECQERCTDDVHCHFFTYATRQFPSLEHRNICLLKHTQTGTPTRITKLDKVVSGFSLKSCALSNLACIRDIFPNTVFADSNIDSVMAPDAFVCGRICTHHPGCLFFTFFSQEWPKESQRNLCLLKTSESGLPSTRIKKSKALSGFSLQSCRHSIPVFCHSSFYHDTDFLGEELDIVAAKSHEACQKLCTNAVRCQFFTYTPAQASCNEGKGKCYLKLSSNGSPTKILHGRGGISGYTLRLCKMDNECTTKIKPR
Chain of purified human plasma kallikrein (P03952 391-638): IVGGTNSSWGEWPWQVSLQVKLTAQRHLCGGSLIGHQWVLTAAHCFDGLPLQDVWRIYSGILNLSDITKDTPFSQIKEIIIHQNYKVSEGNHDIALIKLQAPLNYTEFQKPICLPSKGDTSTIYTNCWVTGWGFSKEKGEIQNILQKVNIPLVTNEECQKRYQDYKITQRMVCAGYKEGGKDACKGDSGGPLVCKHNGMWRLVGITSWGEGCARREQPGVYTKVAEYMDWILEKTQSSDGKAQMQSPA
Chain of purified human plasma kallikrein (P03952 20-390 partner): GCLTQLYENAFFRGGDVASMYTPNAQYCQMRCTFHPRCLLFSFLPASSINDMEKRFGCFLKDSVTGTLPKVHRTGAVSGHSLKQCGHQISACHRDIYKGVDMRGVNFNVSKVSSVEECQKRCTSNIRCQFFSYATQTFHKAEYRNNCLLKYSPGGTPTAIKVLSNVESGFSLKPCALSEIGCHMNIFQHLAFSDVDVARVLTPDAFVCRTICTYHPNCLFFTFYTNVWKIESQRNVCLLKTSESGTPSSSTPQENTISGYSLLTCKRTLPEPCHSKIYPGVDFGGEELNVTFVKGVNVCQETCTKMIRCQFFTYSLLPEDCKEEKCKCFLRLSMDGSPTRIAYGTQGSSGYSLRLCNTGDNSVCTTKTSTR

SMILES | Ki [1, 3] | Ki [2, 4] | other results
C=C(C)c1cccc2c1CCN(C(=O)c1cn(-c3cccc(Cl)c3F)nn1)C2C(=O)Nc1ccc(C(=O)O)cc1 (stereo not drawn) [Example 333, 4-(2-(1-(3-Chloro-2-fluorophenyl)-1H-1,2,3-triazole-4-carbonyl)-5-(prop-1-en-2-yl)-1,2,3,4-tetrahydroisoquinoline-1-carboxamido)benzoic acid] | 61.3 nM | 18.2 nM | 
O=C(NC12CCC(C(=O)O)(CC1)CC2)C1c2cccc(-c3cncnc3)c2CCN1C(=O)c1cn(-c2cccc(Cl)c2F)nn1 (stereo not drawn) [Example 143, 4-(2-{[1-(3-Chloro-2-fluorophenyl)-1H-1,2,3-triazol-4-yl]carbonyl}-5-(pyrimidin-5-yl)-1,2,3,4-tetrahydroisoquinoline-1-amido)bicyclo[2.2.2]octane-1-carboxylic acid, 1 TFA] |  | 5.23 nM | Ki ([1]; measured at 37° C. (*)): 237 nM
COC1CCN(c2cccc3c2CCN(C(=O)c2cn(-c4cccc(Cl)c4F)nn2)[C@@H]3C(=O)Nc2ccc(C(=O)O)cc2)CC1 [Example 314, (S)-4-(2-(1-(3-chloro-2-fluorophenyl)-1H-1,2,3-triazole-4-carbonyl)-5-(4-methoxypiperidin-1-yl)-1,2,3,4-tetrahydroisoquinoline-1-carboxamido)benzoic acid, TFA salt] | 10.3 nM | < 5 nM | 
CN(C)C1CCN(c2cccc3c2CCN(C(=O)c2cn(-c4cccc(Cl)c4F)nn2)[C@@H]3C(=O)Nc2ccc(-c3cn[nH]c3)cc2)CC1 [Example 104, (S)-N-(4-(1H-Pyrazol-4-yl)phenyl)-2-(1-(3-chloro-2-fluorophenyl)-1H-1,2,3-triazole-4-carbonyl)-5-(4-(dimethylamino)piperidin-1-yl)-1,2,3,4-tetrahydroisoquinoline-1-carboxamide, bis-TFA salt] | 0.96 nM | < 5 nM | 
CN1CCN(c2cccc3c2CCN(C(=O)C2CC(c4cccc(Cl)c4F)=NO2)C3C(=O)Nc2ccc(C(=O)O)cc2)CC1=O (single isomer, unassigned) [Example 280, 4-(2-(3-(3-chloro-2-fluorophenyl)-4,5-dihydroisoxazole-5-carbonyl)-5-(4-methyl-3-oxopiperazin-1-yl)-1,2,3,4-tetrahydroisoquinoline-1-carboxamido)benzoic acid, TFA salt] |  |  | Ki ([1]; measured at 25° C. (no asterisk), TFA salt): 283 nM; Ki ([2]; read-out: Factor XIa Ki, measured at 25° C., TFA salt): 36.5 nM
COC1CCN(c2cccc3c2CCN(C(=O)c2cn(-c4cccc(Cl)c4F)cn2)C3C(=O)Nc2ccc(C(=O)O)cc2)CC1 (racemic) [Example 271, 4-(2-(1-(3-chloro-2-fluorophenyl)-1H-imidazole-4-carbonyl)-5-(4-methoxypiperidin-1-yl)-1,2,3,4-tetrahydroisoquinoline-1-carboxamido)benzoic acid, TFA salt] | 7.65 nM |  | Ki [2]: < 5 nM
CN(C)C1CCN(c2cccc3c2CCN(C(=O)c2cn(-c4cccc(Cl)c4F)nn2)C3C(=O)Nc2ccc(-c3cn[nH]c3)cc2)CC1 (stereo not drawn) [Example 102, N-(4-(1H-Pyrazol-4-yl)phenyl)-2-(1-(3-chloro-2-fluorophenyl)-1H-1,2,3-triazole-4-carbonyl)-5-(4-(dimethylamino)piperidin-1-yl)-1,2,3,4-tetrahydroisoquinoline-1-carboxamide, bis-TFA salt] | 1.39 nM | < 5 nM | 
CN1CCN(c2cccc3c2CCN(C(=O)c2cncc(-c4cccc(Cl)c4)c2)C3C(=O)Nc2ccc(C(=O)O)cc2)CC1 (stereo not drawn) [Example 320, 4-(2-(5-(3-Chlorophenyl)nicotinoyl)-5-(4-methylpiperazin-1-yl)-1,2,3,4-tetrahydroisoquinoline-1-carboxamido)benzoic acid, 2 TFA salt] | 124 nM | 158 nM | 
COC1CCN(c2cccc3c2CCN(C(=O)c2cn(-c4c(F)ccc(Cl)c4F)cn2)C3C(=O)Nc2ccc(C(=O)O)cc2)CC1 (racemic) [Example 312, 4-(2-(1-(3-chloro-2,6-difluorophenyl)-1H-imidazole-4-carbonyl)-5-(4-methoxypiperidin-1-yl)-1,2,3,4-tetrahydroisoquinoline-1-carboxamido)benzoic acid, TFA salt] | 27.3 nM |  | Ki [2]: < 5 nM
